According to patent publication US20070276034A1, “Compounds, compositions and methods for the treatment of synucleinopathies” (priority 2002, published 2007):

Assays:
Format in all cases: biochemical
[1] = target: T1, NAC fibrils (Homo sapiens, UniProt P37840); experiment: Congo red binding assay with NAC fibrils; conditions: for % Inhibition NAC (result ± S.D.), Congo red binding: 3-day incubation
T1 construct: NAC is a 35-amino acid fragment of α-synuclein; purchased Bachem Inc
Experimental: (§1) In the Congo red binding assay, the ability of a given test compound to alter amyloid (in this case, NAC) binding to Congo red is quantified. In this assay, NAC and test compounds were incubated for 3 days and then vacuum filtered through a 0.2 μm filter. The amount of NAC retained in the filter was then quantitated following staining of the filter with Congo red. After appropriate washing of the filter, any lowering of the Congo red color on the filter in the presence of the test compound (compared to the Congo red staining of the amyloid protein in the absence of the test compound) was indicative of the test compound's ability to diminish/alter the amount of aggregated and congophilic NAC.
In one study, the ability of NAC fibrils to bind Congo red in the absence or presence of increasing amounts of compounds #1, 3, 23, 26, 63, 66, 67, or EDTA (at NAC:test compound weight ratios of 1:1, 1:0.1, 1:0.01 or 1:0.001) was determined.

[2] = target: T2, Aβ 1-42 fibrils (Homo sapiens, UniProt P05067); experiment: Congo red binding assay with Aβ 1-42 fibrils; conditions: for % Inhibition Aβ (result ± S.D.), Congo red binding: 3-day incubation
T2 construct: purchased Bachem Inc
T2 sequence (P05067 672-713): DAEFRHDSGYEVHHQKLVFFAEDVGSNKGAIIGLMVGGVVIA
Experimental: as §1, with “binding assay” for “binding assay,”, “a” for “a given”, “case, Aβ)” for “case, NAC)”, “assay, Aβ 1-42” for “assay, NAC”, “of Aβ 1-42” for “of NAC”, “congophilic Aβ.” for “congophilic NAC.”
In one study, the ability of Aβ fibrils to bind Congo red in the absence or presence of increasing amounts of the compounds or EDTA (at Aβ:test compound weight ratios of 1:1, 1:0.1, 1:0.01 or 1:0.001) was determined.

[3] = target: T2, Aβ 1-42 fibrils; experiment: Circular dichroism spectroscopy of Aβ 1-42 fibrils
Experimental: Circular dichroism (CD) spectroscopy is a method that can be used to determine the effects of test compounds to disrupt the secondary structure conformation of amyloid fibrils. In one study, as described in this example, circular dichroism spectroscopy was used to determine the effects of different compounds of the invention on β-sheet conformation of Aβ 1-42 fibrils. For this study, Aβ 1-42 (Bachem Inc., Torrance, Calif.) was first dissolved in a 2 mM NaOH solution, maintaining the pH of these solutions above 10. […] Aβ 1-42 was then incubated at 37° C. in the absence or presence of different compounds at an Aβ:test compound wt/wt ratios of 1:0.1, 1:1 and 1:10. After 3 days of incubation, CD spectra were recorded on a Jasco 810 spectropolarimeter (Easton, Md.). All CD spectra were collected with 0.05 cm quartz cells. Wavelength traces were scanned from 190-260 nm at 0.5 nm increments with a bandwidth of 5 nm, at a scan speed of 10 nm/minute, a response time of 32 seconds, and a data pitch of 0.5 nm. The whole system was equilibrated and continuously flushed with nitrogen at 10 ml/minute. […] Ellipticity in degrees was converted to MRE ([Q]; molar residue ellipticity) using the formula [Q]=100•[…]; where Q is the ellipticity in degrees; […]

[4] = NAC:test compound wt/wt ratio 1:0.1
[5] = NAC:test compound wt/wt ratio 1:1
[6] = Aβ:test compound wt/wt ratio 1:0.001
[7] = Aβ:test compound wt/wt ratio 1:0.1
[8] = Aβ:test compound wt/wt ratio 1:1
[9] = NAC:test compound wt/wt ratio 1:0.001
[10] = NAC:test compound wt/wt ratio 1:0.01
[11] = all concentrations tested (ratios 1:1 to 1:0.001), 3 days

Row | Structure (SMILES) | % Inhibition NAC (result ± S.D.), Congo red binding [1, 4] [%] | % Inhibition NAC (result ± S.D.), Congo red binding [1, 5] [%] | % Inhibition Aβ (result ± S.D.), Congo red binding [2, 6] [%] | % Inhibition Aβ (result ± S.D.), Congo red binding [2, 7] [%] | % Inhibition Aβ (result ± S.D.), Congo red binding [2, 8] [%] | % Inhibition NAC (result ± S.D.), Congo red binding [1, 9] [%] | % Inhibition NAC (result ± S.D.), Congo red binding [1, 10] [%] | other results
1 | O=C(N[C@@H]1CCCC[C@H]1NC(=O)c1ccc(O)c(O)c1)c1ccc(O)c(O)c1 (relative stereo) [Compound 26, N,N′-bis(3,4-dihydroxybenzoyl)-trans-1,2-diaminocyclohexane] | 36.7 ± 5.59 | 34.4 ± 10.19 | – | – | – | – | – | –
2 | O=C(c1ccc(O)c(O)c1)C(O)c1ccc(O)c(O)c1 (stereo not shown) [Compound 1, 3,4,3′,4′-tetrahydroxybenzoin] | 75.9 ± 2.58 | 75.4 ± 2.96 | – | – | – | – | – | –
3 | Oc1ccc(Cc2ccc(O)c(O)c2)cc1O [Compound 3, 3,4,3′,4′-tetrahydroxydiphenylmethane] | 83.2±3.57 | 94.4±2.48 | 1.7 ± 4.21 | 35.7 ± 3.29 | 91.6±5.19 | 65.2 ± 5.40 | 81.7 ± 2.82 | –
4 | O=C(Nc1ccc(O)c(O)c1)c1ccc(O)c(O)c1 [Compound 51, 3,4-dihydroxybenzoic acid 3,4-dihydroxyanilide] | – | – | – | – | – | – | – | disruption of β-sheet structure in Aβ 1-42 fibrils (CD minima at 218 nm) ([3]; 3 days co-incubation, 25 μM Aβ 1-42 (FIG. 1, FIG. 2)): marked disruption of β-sheet structure; disruption of β-sheet structure of Aβ 1-42 fibrils (CD minima at 218 nm) ([3]; Aβ:test compound wt/wt ratio of 1:10 (FIG. 3)): completely disrupt the β-sheet structure; dose-response of disruption of β-sheet structure of Aβ 1-42 fibrils (CD minima at 218 nm) ([3]; Aβ:test compound wt/wt ratios of 1:0.1, 1:1 and 1:10 (FIG. 3)): dose-dependent decrease in the minima
5 | O=C(CCC(=O)NCc1ccc(O)c(O)c1)NCc1ccc(O)c(O)c1 [Compound 67, succinic acid bis(3,4-dihydroxybenzylamide)] | – | 81.2 ± 2.87 | – | – | – | – | – | –
6 | O=C(O)CN(CCN(CC(=O)O)CC(=O)O)CC(=O)O [EDTA, reference compound] | 0.0 ± 38.26 | 0.2 ± 7.33 | 7.91 ± 3.61 | 3.6 ± 8.68 | 1.1 ± 7.02 | 0.0 ± 20.57 | 0.0 ± 22.0 | % Inhibition Aβ (result ± S.D.), Congo red binding ([2]; Aβ:test compound wt/wt ratio 1:0.01): 0.0 ± 3.91%; inhibition of Aβ 1-42 fibril binding to Congo red (in words) [2, 11]: no significant inhibition; inhibition of NAC fibril binding to Congo red (in words) [1, 11]: no significant inhibition
